Experimental data: patent US7579324B2, “Conjugates of biologically active compounds, methods for their preparation and use, formulation and pharmaceutical applications thereof” (c-a-i-r biosciences GmbH, priority 2002, dated 2009)

Test system: white blood cells
Test: Immune cell selective uptake (immune selectivity ratio) in blood cell preparations
Assay type: cell-based, mammalian
Set-up: key: Y: Compounds exhibiting high uptake; N: similar structures that do not
Details: uptake in white cells from blood cell mix; Y/N
Description: Freshly drawn heparinised blood or buffy coat preparations are used for the determination of immune cell partition ratios. Buffy coat preparations are preferred. These may be obtained from donor blood by simple centrifugation of whole blood (4795 g for 10 minutes). Following centrifugation, plasma is collected from the surface, after which immune cells are expressed from the donor bags along with the erythrocytes lying immediately below the leukocyte layer. This ensures high yields and a sufficient population of erythrocytes for partition. 5 ml of the resulting cell suspension are dispensed into T25 culture flasks. Substrates are added to a final concentration between 1 and 10 μM and the suspensions incubated at 37° C., in a 5% CO2 atmosphere. For analysis of uptake kinetics, samples are withdrawn at 0, 2, 5, 10, 30, 60, 90, 180, or 240 min after substrate addition. For screening purposes, samples are taken at 0 and 120 minutes.
Cell fractions were prepared using density gradient centrifugation. Mononuclear cells and polymorphonuclear cells are separated from erythrocytes essentially by layering the cell suspension on a viscous medium typically composed of a solution containing Ficoll or similar (commercial suppliers include: Lymphoprep, Axis Shield, 1031966; Lymphoflot HLA, 824010; or PMN Separation Medium Robbins Scientific 1068-00-0). The layered suspension is then centrifuged at 600 g, 20 min, after which the cell fractions and the plasma (incubation medium) fraction are removed by gentle aspiration, washed twice in PBS buffer, followed by estimation of the cell number and pellet volume.
Uptake of fluorescent compounds is monitored using fluorescence microscopy. Excitation and emission wavelengths depend of the fluorescence label in use. A typical label is a methoxy coumarin for which the appropriate wavelengths are 360 and 450 nm respectively. Fluorescent analogs of the compounds under study permit the estimation of appropriate uptake intervals as well as the likely intracellular distribution of the compounds. Fluorescent analogs also allow the estimation of losses in washing or other cell manipulations.
Cell preparations are lysed in water and the debris sedimented at 16100 g, 10 min. The supernatant is recovered and sub-sampled for protein and DNA content. Protein in the supernatant is precipitated by bringing the solution to […] ethanol and centrifuging again at 16100 g, 10 min.
Compound uptake is normalized according to cytoplasmic volume of cells in order to obtain the average concentration in the cells. Cell volume is estimated by correlation of DNA, protein or haem content of lysed cell aliquots to cell number and packed volume prior to lysis.
Cell lysates are analysed using a HP 1100 HPLC System (Agilent Technologies, Waldbronn, Germany) with a Kromasil 3.5μ C18, 50×2.0 mm column and guard cartridge system (both, Phenomenex, Aschaffenburg, Germany) run at 30° C. A gradient elution was performed using water, 0.05% formic acid (A) and acetonitrile 0.05% formic acid (B) (0 min. 5% B, 2.5 min 5% B, 2.8 min 40% B, 10.5 min 85% B, 12.0 min 95% B, 16.5 min 95% B) at a flow rate of 300 μl/min. Re-equilibration of column was at 5% B, at a flow rate of 750 μl/min for 2.4 min. The HPLC-eluate from retention time 0.0 min to 2.5 min was directed directly to waste. Detection was via a UV cell at 214 nm followed by a ⅙ split to an An API-qTOF 1 (Micromass, Manchester, UK) mass spectrometer, (calibrated daily using a mixture of NaI, RbI and CsI). The mass spectrometer is routinely operated in the positive electrospray ionization mode using the following settings: Capillary voltage 4000 V; cone voltage 30 V; RF Lens offset 0.38 V; source block temperature 80° C.; desolvation gas temperature 140° C.; desolvation gas 240 l/h; LM/HM Resolution 0.0; Collision energy 4.0 V; Ion energy 5.0 V.
Masses are monitored according to the known or expected M/Z ratios. […]

Q: Which Concentrative uptake does the source give for `O=c1ccc2cc(O[C@@H]3O[C@H](CO)C(O)[C@H](O)C3O)c(O)cc2o1` (stereo partly drawn) [Compound 1] here?
A: Y

Q: Which Concentrative uptake does the source give for `CC[C@H]1OC(=O)[C@H](C)[C@@H](OC2C[C@@](C)(OC)[C@@H](O)[C@H](C)O2)[C@H](C)[C@@H](OC2O[C@H](C)C[C@H](N(C)C)[C@H]2O)[C@](C)(O)C[C@@H](C)/C(=N/OCc2cc(=O)oc3cc(OC)c(OC)cc23)[C@H](C)[C@@H](O)[C@]1(C)O` (stereo partly drawn) [Compound 3] here?
A: Y

Q: How did the Concentrative uptake turn out when `COc1cc(C)c(/C(=C\C(C)=O)CC(N)C(=O)O)cc1OC` (stereo not drawn) [Compound 4] was run?
A: Y

Q: For `CC[C@H]1OC(=O)[C@H](C)[C@@H](O[C@H]2C[C@@](C)(OC)[C@@H](O)[C@H](C)O2)[C@H](C)[C@@H](OC2O[C@H](C)C[C@H](N(C)C)[C@H]2O)[C@](C)(O)C[C@@H](C)CN(Cc2cc(=O)oc3cc(OC)ccc23)[C@H](C)[C@@H](O)[C@]1(C)O` (stereo partly drawn) [Compound 7], which Concentrative uptake is on record?
A: Y

Q: How did the Concentrative uptake turn out when `CC(C)(C)OC(=O)NC(CSCC(=O)NCCNc1cccc2c(S(=O)(=O)O)cccc12)C(=O)O` (stereo not drawn) [Compound 8] was run?
A: Y

Q: With `COc1ccc2c(CSc3ncnc4[nH]cnc34)cc(=O)oc2c1` [Compound 9] as the molecule, how does the Concentrative uptake read?
A: N

Q: For `COc1cc2oc(=O)cc(CC(NC(=O)CN)C(=O)O)c2cc1OC` (stereo not drawn) [Compound 10], which Concentrative uptake is on record?
A: N

Q: Which Concentrative uptake does the source give for `CN(C)c1cccc2c(S(=O)(=O)NNC(=N)N)cccc12` [Compound 11] here?
A: N

Q: How did the Concentrative uptake turn out when `COc1cc(C)c(/C(=C\C(C)=O)CC(NC(=O)CCN)C(=O)O)cc1OC` (stereo not drawn) [Compound 12] was run?
A: N

Q: For `COc1cc(C)c(/C(=C\C(C)=O)CC(NC(=O)C(N)CCC(=O)O)C(=O)O)cc1OC` (stereo not drawn) [Compound 14], which Concentrative uptake is on record?
A: N

Q: For `O=C(CSc1ncnc2[nH]cnc12)NCCNc1cccc2c(S(=O)(=O)O)cccc12` [Compound 15], which Concentrative uptake is on record?
A: Y

Q: `Cc1cc(=O)oc2cc(SCC(=O)NC3CCOC3=O)ccc12` (stereo not drawn) [Compound 22] was tested. Which Concentrative uptake did it give?
A: Y

Q: How did the Concentrative uptake turn out when `Cc1cc(=O)oc2cc(SCC(=O)NCCN3CCOCC3)ccc12` [Compound 23] was run?
A: Y

Q: With `Cc1cc(=O)oc2cc(SCC(=O)NN3CCN(CCO)CC3)ccc12` [Compound 24] as the molecule, how does the Concentrative uptake read?
A: N

Q: Which Concentrative uptake does the source give for `Cc1cc(=O)oc2cc(SCC(=O)NN3CCOCC3)ccc12` [Compound 25] here?
A: N

Q: For `CN(C)c1cccc2c(S(=O)(=O)NN3CCN(CCO)CC3)cccc12` [Compound 26], which Concentrative uptake is on record?
A: Y

Q: How did the Concentrative uptake turn out when `CN(C)c1cccc2c(S(=O)(=O)Nc3cc(O)[nH]n3)cccc12` [Compound 27] was run?
A: Y

Q: Which Concentrative uptake does the source give for `COC(=O)C1CN(S(=O)(=O)c2cccc3c(N(C)C)cccc23)CCC1=O` (stereo not drawn) [Compound 29] here?
A: N

Q: With `CN(C)c1cccc2c(S(=O)(=O)N3CCN(c4ccc(O)cc4)CC3)cccc12` [Compound 30] as the molecule, how does the Concentrative uptake read?
A: N

Q: With `CN(C)c1cccc2c(S(=O)(=O)N3CCN(CCO)CC3)cccc12` [Compound 31] as the molecule, how does the Concentrative uptake read?
A: N

Q: Which Concentrative uptake does the source give for `CN(C)c1cccc2c(S(=O)(=O)NC(C)(CO)CO)cccc12` [Compound 32] here?
A: N

Q: For `CN(C)c1cccc2c(S(=O)(=O)N(CCO)CCO)cccc12` [Compound 33], which Concentrative uptake is on record?
A: N

Q: With `CN(C)c1cccc2c(S(=O)(=O)Nc3c[nH]c(=O)[nH]c3=O)cccc12` [Compound 34] as the molecule, how does the Concentrative uptake read?
A: N

Q: `CN(C)c1cccc2c(S(=O)(=O)Nc3ccc(C(=O)O)cc3O)cccc12` [Compound 35] was tested. Which Concentrative uptake did it give?
A: N

Q: `CCN(CC)c1ccc(NS(=O)(=O)c2cccc3c(N(C)C)cccc23)cc1` [Compound 36] was tested. Which Concentrative uptake did it give?
A: N

Q: Which Concentrative uptake does the source give for `CN(C)c1cccc2c(S(=O)(=O)NCCCN3CCCC3=O)cccc12` [Compound 37] here?
A: N

Q: With `COc1ccc(/C(=C\C(C)=O)CSc2nnc(-c3ccc([NH+]([O-])O)o3)s2)c(C)c1` (stereo not drawn) [Compound 38] as the molecule, how does the Concentrative uptake read?
A: N

Test system: E. coli (DH5α)
Test: Antibiotic activity testing (TC50, dilution assay)
Assay type: cell-based
Details: concentration that inhibits 50% of growth, turbidity OD600
Description: The TC50 or MIC procedure for antibiotic sensitivity testing involves an antibiotic dilution assay, which can be performed in microtitre plates. A series of twofold dilutions of each antibiotic are made in the wells, and then all wells are inoculated with a standard amount of the same test organism. After incubation, growth in the presence of the various antibiotics is observed by measuring turbidity.
Bacteria: B. pumilus and E. coli (DH5α)
Bacterial cultures are initiated from the plates for 2 to 3 weeks. After this time period bacteria are streaked out on new plates from the backups stored at −80° C. Due to the lack of resistance of the bacteria, new cultures are not to be initiated from an old plate or any liquid cultures derived from old plates.
Growth medium (GM)(per liter): 10 g Bacto-tryptone, 5 g Bacto-yeast extract, 6 g HEPES (25 mM), 5.4 g NaCl, pH 7.3
Compound stocks 10 or 100 mM in DMSO stored at −20° C.
1. Grow B.pumilus from an LB agar plate in a flask (max. 10% volume) up to about 50 ml in growth medium (GM)
2. Dilute overnight suspension 1:10 in GM
3. Determine OD600 of diluted bacterial suspension
4. Dilute bacterial suspension in GM to an OD600 of 0.03-0.04. (6 ml/plate)
5. Add 200 μl GM to the outer wells (Row A, Row H, Column 1, Column 12)
6. Add 100 μl GM to each well starting from C2, row 3.
7. Controls: Wells B2-B4 growth control. Wells B6-B8 blank. Row C growth inhibition control. • 7.1. To wells B2-B4 add: 96 μl GM, 4 μl DMSO, and 100 μl bacterial suspension adjusted to an OD600 of 0.03-0.04. • 7.2. To wells B6-B8 add: 196 μl GM and 4 μl DMSO • 7.3. Dilute a 10 mM COMPOUND 43 (positive control) stock to 800 μM (120 μl/plate) in GM. Add 100 μl of 800 μM COMPOUND 43 solution to well C2.
8. Samples • 8.1. Dilute the 10 or 100 mM stock solutions to 800 μM (250 μl/plate) in GM. • 8.2. Add 100 μl of 800 μM sample in duplicates to wells D2/E2 resp. F2/G2. • 8.3. 2-fold serial dilution of all samples and Azithromycin • 8.3.1. Rows C-G, Columns 2: Mix and transfer 100 μl from each row to Column 3, and continue until column 11. […]
11. Determine OD600 on plate reader.

Q: With `CC[C@H]1OC(=O)[C@H](C)[C@@H](O[C@H]2C[C@@](C)(OC)[C@@H](O)[C@H](C)O2)[C@H](C)[C@@H](O[C@@H]2O[C@H](C)C[C@H](N(C)C)[C@H]2O)[C@](C)(O)C[C@@H](C)CN(C)[C@H](C)[C@@H](O)[C@]1(C)O` [COMPOUND 43, 9a-aza-9a-methyl-9-deoxo-9a-homoerythromycin A, reference compound] as the molecule, how does the “TC50 in E. coli” value read?
A: 2.3 µM

Q: With `CC[C@H]1OC(=O)[C@H](C)[C@@H](O[C@H]2C[C@@](C)(OC)[C@@H](O)[C@H](C)O2)[C@H](C)[C@@H](O[C@@H]2O[C@H](C)CC(N(C)C(=O)CN(C)CCO)[C@H]2O)[C@](C)(O)C[C@@H](C)CN(C)[C@H](C)[C@@H](O)[C@]1(C)O` (stereo partly drawn) [COMPOUND 45] as the molecule, how does the “TC50 in E. coli” value read?
A: >50 µM

Q: `CC[C@H]1OC(=O)[C@H](C)C(=O)[C@H](C)[C@@H](O[C@@H]2O[C@H](C)C[C@H](N(C)C)[C@H]2OC(=O)Cc2ccccc2Nc2c(Cl)cccc2Cl)[C@](C)(O)C[C@@H](C)CN(C)[C@H](C)[C@@H](O)[C@]1(C)O` [COMPOUND 53] was tested. Which “TC50 in E. coli” value did it give?
A: >50 µM
